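Where inhibition never reached the appropriate level, the endpoint shown equals the highest concentration tested. Otherwise, values were interpolated linearly from a five-concentration, 48-hour dose response in 96-well plates. Abbreviation: GI50, concentration required for 50% inhibition of growth. At the TGI there is no net growth.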
Assays:
Test in all cases: growth of human tumour cells (NCI), 48 h
K-562 leukemia = system: K-562 leukemia
PC-3 prostate = system: PC-3 prostate
OVCAR-4 ovarian = system: OVCAR-4 ovarian
786-0 renal = system: 786-0 renal
MDA-MB-435 = system: MDA-MB-435

Row | Compound | GI50 (K-562 leukemia) [µM] | TGI (K-562 leukemia) [µM] | GI50 (PC-3 prostate) [µM] | TGI (PC-3 prostate) [µM] | GI50 (OVCAR-4 ovarian) [µM] | TGI (OVCAR-4 ovarian) [µM] | GI50 (786-0 renal) [µM] | TGI (786-0 renal) [µM] | GI50 (MDA-MB-435) [µM] | TGI (MDA-MB-435) [µM]
1 | COc1ccc2c(c1)CC[C@@H]1[C@@H]2CC[C@]2(C)C(c3ccco3)=C(C=O)C[C@@H]12 | 3.56 | 22.7 | 5.66 | 37.3 | 20 | > 100 | 23.1 | 55.5 | 2.21 | 5.88
2 | COc1cc2nc(Nc3cccc(F)c3)nc(Nc3cc(C)[nH]n3)c2cc1OC | 1.36 | 4.94 | 1.68 | 3.39 | 1.68 | 3.49 | 1.75 | 3.45 | 1.63 | 3.16
3 | Nc1ncnc2c1ncn2C1OC(CO)=CC1O (stereo not given) |  | > 37.5 |  | > 37.5 |  | > 37.5 |  | > 37.5 |  | > 37.5
4 | Cn1cc(C2=C(c3cn(CCN)c4ccccc34)C(=O)NC2=O)c2ccccc21 | 8.4 | > 25 | 5.14 | > 19.7 | 5.66 | > 21.2 | 8.98 | > 25 | 3.81 | 19.4
5 | C=C(C)[C@@H]1CC[C@]2(C)[C@H](CC[C@@H]3[C@H]4[C@H]5OC[C@@]4(CCC5(C)C)CC[C@]32C)[C@@]1(C)CCCN | 2.25 | 9.01 | 1.74 | 3.29 | 2.04 | 3.78 | 1.67 | 3.17 | 1.76 | 3.24
6 | NS(=O)(=O)c1ccc(CCN=C=S)cc1 | 2.54 | > 100 | 2.03 | 5.23 | 1.9 | 4.15 | 1.71 | 3.34 | 1.91 | 3.88
7 | Cc1nc(NC(=O)CCCN2C(=O)c3cccc4cccc(c34)C2=O)sc1C(=O)Nc1cc(C(=O)NCCCN(C)C)n(C)c1 | > 100 | > 100 | > 100 | > 100 | 94.8 | > 100 | > 100 | > 100 | > 100 | > 100
8 | CCCCCCCC[N+](C)(CCCCCCCC)CCCCCCCC | 0.108 | 0.447 | 0.24 | 1.02 | 0.371 | 1.67 | 0.345 | 1.3 | 0.273 | 1.01
9 | C=C1C(=O)O[C@H]2[C@H]1CC/C(COC(=O)NCc1c[nH]c3ccc(Cl)cc13)=C\CC[C@@]1(C)O[C@@H]21 | 0.416 | 2.02 | 1.52 | 3.08 | 1.45 | 3.16 | 1.07 | 2.49 | 1.12 | 2.48
10 | CCC(C)C(NC(=O)C1CCCN1C(=O)C(NC(=O)C(C)N)C(C)C)C(N)=O (stereo not given) | > 100 | > 100 | > 100 | > 100 | > 100 | > 100 | > 100 | > 100 | > 100 | > 100

— PubChem BioAssay (NCI)
